From the NIST ThermoML archive (doi:10.1021/je800382b)
Several values for one entry are separate records, joined by “and”; a condition that tells them apart may be missing. Identical values can stand only once.

Columns and labels:
[1] = DTA
[2] = Molar enthalpy of transition or fusion; conditions: DSC
[3] = molar heat capacity at constant pressure; conditions: 101.33 kPa, Small sample (50 mg) DSC

c1ccc2cc3cc4ccccc4cc3cc2c1 [2,3-benzanthracene]
Conditions | Molar enthalpy of transition or fusion, Crystal 1 [kJ/mol] | Molar enthalpy of transition or fusion, Crystal 2 [kJ/mol] | Molar enthalpy of transition or fusion, Crystal 3 [kJ/mol] | Normal melting temperature, Crystal 1 [°C] | Triple point temperature, Crystal 2 [K] | Triple point temperature, Crystal 3 [K]
[1] | – | – | – | 353.1 | 581.9 | 398.1
[2] | 36.8 | 1.2 | 0.11 | – | – | –

[3]
Conditions | molar heat capacity at constant pressure
258.1 K, Crystal 3 | 218.8 J/K/mol and 220.8 J/K/mol and 219.3 J/K/mol
268.3 K, Crystal 3 | 230.5 J/K/mol [middle of 4 runs]
278.5 K, Crystal 3 | 240.6 J/K/mol [middle of 4 runs]
288.7 K, Crystal 3 | 250.4 J/K/mol [middle of 4 runs]
298.9 K, Crystal 3 | 260.8 J/K/mol [middle of 4 runs]
299.3 K, Crystal 3 | 260.9 J/K/mol
309.1 K, Crystal 3 | 269.7 J/K/mol [middle of 4 runs]
309.3 K, Crystal 3 | 270.1 J/K/mol
319.2 K, Crystal 3 | 280.1 J/K/mol
319.4 K, Crystal 3 | 278 J/K/mol [middle of 4 runs]
329.1 K, Crystal 3 | 286.4 J/K/mol
329.6 K, Crystal 3 | 287.1 J/K/mol [middle of 4 runs]
339.1 K, Crystal 3 | 295.8 J/K/mol
339.8 K, Crystal 3 | 296.6 J/K/mol and 295.5 J/K/mol and 295.4 J/K/mol
349 K, Crystal 3 | 307.1 J/K/mol and 303.7 J/K/mol
350 K, Crystal 3 | 304.2 J/K/mol [middle of 4 runs]
359 K, Crystal 3 | 312.4 J/K/mol and 314.7 J/K/mol
368.9 K, Crystal 3 | 324.2 J/K/mol and 319.7 J/K/mol
378.9 K, Crystal 3 | 330.2 J/K/mol and 332.5 J/K/mol
388.8 K, Crystal 3 | 341.4 J/K/mol
408.7 K, Crystal 2 | 357.6 J/K/mol
418.6 K, Crystal 2 | 364.9 J/K/mol and 365.7 J/K/mol
428.6 K, Crystal 2 | 378.1 J/K/mol
438.5 K, Crystal 2 | 381.3 J/K/mol and 383.5 J/K/mol
448.5 K, Crystal 2 | 391.9 J/K/mol and 392.5 J/K/mol
458.4 K, Crystal 2 | 403 J/K/mol
468.4 K, Crystal 2 | 409.4 J/K/mol and 411.7 J/K/mol
478.3 K, Crystal 2 | 417.9 J/K/mol
488.2 K, Crystal 2 | 426.2 J/K/mol
498.2 K, Crystal 2 | 438.5 J/K/mol
508.1 K, Crystal 2 | 444.3 J/K/mol
518.1 K, Crystal 2 | 454.5 J/K/mol
528 K, Crystal 2 | 459.9 J/K/mol
538 K, Crystal 2 | 474.1 J/K/mol
547.9 K, Crystal 2 | 479.3 J/K/mol
557.8 K, Crystal 2 | 493.4 J/K/mol
647.32 K, Liquid | 505.18 J/K/mol
657.27 K, Liquid | 509.31 J/K/mol
667.21 K, Liquid | 513.42 J/K/mol

c1ccc2cc3cc4cc5ccccc5cc4cc3cc2c1 [2,3:6,7-dibenzanthracene]
[3], Crystal
Conditions | molar heat capacity at constant pressure
258.1 K | 264.5 J/K/mol and 265.5 J/K/mol and 267.2 J/K/mol
268.3 K | 275.7 J/K/mol and 277.2 J/K/mol and 277.1 J/K/mol
278.5 K | 288.9 J/K/mol and 287.1 J/K/mol and 287.5 J/K/mol
288.7 K | 299.7 J/K/mol and 299.2 J/K/mol
298.9 K | 311.6 J/K/mol and 311.5 J/K/mol and 311 J/K/mol
309.1 K | 322.1 J/K/mol and 322.4 J/K/mol and 322.3 J/K/mol
309.2 K | 324.4 J/K/mol
319.2 K | 338.9 J/K/mol
319.4 K | 332.5 J/K/mol and 333.2 J/K/mol and 332.1 J/K/mol
329.6 K | 345.7 J/K/mol and 346.5 J/K/mol and 344.5 J/K/mol
339.8 K | 356.2 J/K/mol and 354.9 J/K/mol and 355.1 J/K/mol
350 K | 365.5 J/K/mol and 367.2 J/K/mol and 366 J/K/mol
359 K | 384.6 J/K/mol
368.9 K | 394.9 J/K/mol
378.9 K | 406 J/K/mol
388.8 K | 411.4 J/K/mol
398.7 K | 427.1 J/K/mol
408.7 K | 425.7 J/K/mol
418.6 K | 436.8 J/K/mol
428.6 K | 450.1 J/K/mol
438.5 K | 457.6 J/K/mol
448.5 K | 466.7 J/K/mol
458.4 K | 476.5 J/K/mol
468.3 K | 481.6 J/K/mol
478.3 K | 497.2 J/K/mol
488.2 K | 501.9 J/K/mol
498.2 K | 509.1 J/K/mol
508.1 K | 518.2 J/K/mol
518.1 K | 527.8 J/K/mol
528 K | 529.1 J/K/mol
537.9 K | 549.1 J/K/mol
547.9 K | 552.3 J/K/mol
557.8 K | 558.6 J/K/mol
567.8 K | 566.7 J/K/mol
577.7 K | 575.7 J/K/mol
587.7 K | 578.8 J/K/mol
597.6 K | 592.5 J/K/mol
